Results from patent publication US20250042886A1, “BIS(HETERO)ARYL THIOETHER OXADIAZINES AS FUNGICIDAL COMPOUNDS” (Bayer Aktiengesellschaft, priority 2021, published 2025).

How the values were obtained:
Sphaerotheca fuliginea = assay: In vivo preventive test on Sphaerotheca fuliginea (powdery mildew on cucurbits); conditions: Podosphaera fuliginea, 192 h; 500 ppm of active ingredient, sprayed on young gherkin plants 24 h before inoculation; evaluated 8 days after inoculation; read-out: efficacy
Method: B-3. […] The active ingredients were made soluble and homogenized in a mixture of Dimethyl sulfoxide/Acetone//Tween® 80 and then diluted in water to the desired concentration. The young plants of gherkin were treated by spraying the active ingredient prepared as described above. Control plants were treated only with an aqueous solution of Acetone/Dimethyl sulfoxide/Tween® 80. After 24 hours, the plants were contaminated by spraying the leaves with an aqueous suspension of Sphaerotheca fuliginea spores.

Fusarium culmorum = Fusarium culmorum in vitro cell test; assay type: cell-based; conditions: 120 h, liquid culture, 5 days incubation, read-out: efficacy (inhibition of fungal growth); for inhibition at 20 ppm: 20 ppm of active ingredient
Procedure, shortened: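 Spores in liquid mineral-salts/saccharose medium exposed to compounds (DMSO ≤1% final) for 5 days. Mycelium growth measured spectrometrically, with inhibition derived from absorbance relative to fungicide-free control wells.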

Alternaria alternata = Alternaria alternata in vitro cell test; assay type: cell-based; conditions: 120 h, liquid culture, 5 days incubation, read-out: efficacy (inhibition of fungal growth); for inhibition at 20 ppm: 20 ppm of active ingredient
Procedure, shortened: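 Spores in glucose/mycological peptone/yeast extract liquid medium were exposed to DMSO-dissolved fungicides for 5 days. Inhibition of germination and mycelial growth was read spectrophotometrically, comparing absorbance against fungicide-free control wells.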

Structure (SMILES) | pest or weed control at 500 ppm (Sphaerotheca fuliginea) [%] | inhibition at 20 ppm (Fusarium culmorum) [%] | inhibition at 20 ppm (Alternaria alternata) [%] | inhibition at 50 µM (Alternaria alternata; 50 μMol/l of active ingredient) [%] | inhibition at 50 µM (Fusarium culmorum; 50 μMol/l of active ingredient) [%]
FC(F)(F)c1cccc(Sc2cnc(Cl)cc2C2=NOC[C@@H](Cc3ccc(Cl)cc3Cl)N2)c1 (racemic) [Compound I-022] | 90 to 100 | 90 to 100 |  |  | 
Cc1cccc(Sc2cnc3ccccc3c2C2=NOC[C@H](Cc3ccc(C)cc3C)N2)c1 (racemic) [Compound I-023] |  | 90 to 100 | 90 to 100 |  | 
Cc1ccc(C[C@@H]2CON=C(c3c(Sc4cccc(C(F)(F)F)c4)nnc4ccccc34)N2)c(C)c1 (racemic) [Compound I-029] |  | 80 to 89 | 90 to 100 |  | 
Cc1ccc(C[C@H]2CON=C(c3c(Sc4cccc(C(F)(F)F)c4)cnc4ccccc34)N2)c(C)c1 (racemic) [Compound I-030] |  | 90 to 100 | 90 to 100 |  | 
Cc1ccc(C[C@@H]2CON=C(c3nc(C)ncc3Sc3cccc(Cl)c3)N2)c(C)c1 (racemic) [Compound I-031] | 90 to 100 | 90 to 100 | 70 to 79 |  | 
Cc1cccc(Sc2cnc(C)nc2C2=NOC[C@@H](Cc3ccc(C)cc3C)N2)c1 (racemic) [Compound I-032] | 90 to 100 | 80 to 89 | 70 to 79 |  | 
Cc1ccc(C[C@@H]2CON=C(c3nc(C)ncc3Sc3cccc(Cl)c3)N2)c(Cl)c1 (racemic) [Compound I-033] | 90 to 100 | 90 to 100 |  |  | 
Cc1cc([C@@H]2CON=C(c3c(Sc4cccc(Cl)c4)nnc(C)c3C)N2)c(C)s1 (racemic) [Compound I-100] |  |  |  | 90 to 100 | 90 to 100
